Reference: patent US6552192B1, “Substituted nitrogen heterocyclic derivatives and pharmaceutical use thereof” (Ustau Experimentalni Botaniky AV-CR, priority 1999, dated 2003)
pIC50: −log10 of the molar value. Where two headings read alike, the source gives them in different places.

Tests used:
CDC2 (p34^cdc2) = target: T1, CDC2 (p34^cdc2) (Homo sapiens, UniProt P06493); experiment: CDK inhibition assay, p34cdc2 kinase (histone H1 phosphorylation); assay type: biochemical; conditions: 1 mg/ml histone H1, 15 μM ATP; for pIC50: 30° C., 10 min
T1 construct: made in house; host or cells: Sf9 insect cells (baculovirus co-infection)
Protocol: Cyclin-dependent kinases (p34^cdc2, p33^cdk2, p33^cdk4) and cyclins (cyclin B, E and D1) are produced in Sf9 insect cells coinfected with appropriate baculoviral constructs. The cells are harvested 68-72 hrs post infection in lysis buffer for 30 min on ice and the soluble fraction is recovered by centrifugation at 14.000 g for 10 min. The protein extract is stored at −80° C.
Lysis buffer: 50 mM Tris pH 7,4, 150 mM NaCl, 5 mM EDTA, 20 mM NaF, 1% Tween, 1 mM DTT, 0.1 mM PMSF, leupeptine, aprotomine
To carry out experiments on kinetics under linear conditions, the final point test system for kinase activity measurement is used. The kinase is added to reaction mixture in such a way as to obtain linear activity with respect to the concentration of enzyme and with respect to time.
Kinase activity is determined at 30° C. in the kinase buffer.
Tested compounds are usually dissolved to 100 mM solutions in DMSO, final concentration of DMSO in reaction mixture never exceeds 1%. The controls contain suitable dilutions of DMSO.
After 10 min, addition 3×SDS sample buffer stops the incubations. […] The measurement of kinase activity is done using digital image analysis.
The kinase activity is expressed as a percentage of maximum activity, the apparent inhibition constants are determined by graphic analysis. Kinase buffer: 50 mM Hepes pH 7.4, 10 mM MgCl2, 5 mM EGTA, 10 mM 2-glycerolphosphate, 1 mM NaF, 1 mM DTT

IκB-α = IκB-α kinase inhibition, in vitro kinase assay; assay type: biochemical
[1] = system: T-lymphoblastic leukemia cell line CEM; experiment: In vitro cytotoxicity, MTT assay, CEM; assay type: cell-based; conditions: Homo sapiens, 72 hours
Text: (§1) One of the parameters used, as the basis for colorimetric assays, is the metabolic activity of viable cells. For example, a microtiter assay, which uses the tetrazolium salt MTT, is now widely used to quantitate cell proliferation and cytotoxicity. For instance, this assay is used in drug screening programs and in chemosensitivity testing. Because only metabolically active cells cleave tetrazolium salts, these assays detect viable cells exclusively. In the case of MTT assay, yellow soluble tetrazolium salt is reduced to coloured water-insoluble formazan salt. After it is solubilized, the formazan formed can easily and rapidly be quantified in a conventional ELISA plate reader at 570 nm (maximum absorbance). The quantity of reduced formazan corresponds to number of vital cells in the culture.
(§2) The cells were maintained in Nunc/Corning 80 cm^2 plastic tissue culture flasks and cultured in cell culture medium (DMEM with 5 g/l glucose, 2 mM glutamine, 100 U/ml penicillin, 100 μg/ml streptomycin, 10% fetal calf serum and sodium bicarbonate).
(§3) The cell suspensions that were prepared and diluted according to the particular cell type and the expected target cell density (2.500-30.000 cells per well based on cell growth characteristics) were added by pipette (80 μl) into 96/well microtiter plates. Inoculates were allowed a pre-incubation period of 24 hours at 37° C. and 5% CO2 for stabilisation. Four-fold dilutions of the intended test concentration were added at time zero in 20 μl aliquots to the microtiter plate wells. Usually, test compound was evaluated at six 4-fold dilutions. […] All drug concentrations were examined in duplicates. Incubations of cells with the test compounds lasted for 72 hours at 37° C., in 5% CO2 atmosphere and 100% humidity. At the end of incubation period, the cells were assayed by using the MTT. Ten microliters of the MTT stock solution were pipetted into each well and incubated further for 1-4 hours. […] The optical density (OD) was measured at 540 nm with the Labsystem iEMS Reader MF (UK). The tumour cell survival (TCS) was calculated using the following equitation: TCS=(ODdrug exposed well/mean ODcontrol wells)×100%. The TCS50 value, the drug concentration lethal to 50% of the tumour cells, was calculated from the obtained dose response curves.

B16 melanoma = experiment: In vitro cytotoxicity, MTT assay, B16; assay type: cell-based; conditions: Mus musculus, 72 hours
Text: as §1, §2, §3

[2] = system: normal human lymphocytes, spontaneous proliferation; experiment: Spontaneous proliferation of lymphocytes, 3H-thymidine incorporation; assay type: cell-based; conditions: Lymphocyte, 72 hours, unstimulated lymphocytes
Protocol: (§4) Human heparinized peripheral blood was obtained from healthy volunteers by cubital vein punction.
(§5) The cells were diluted at target density of 1.100.000 cells/ml were added by pipet (180 μl) into 96/well microtiter plates. Four-fold dilutions of the intended test concentration were added at time zero in 20 μl aliquots to the microtiter plate wells. Usually, test compound was evaluated at six 4-fold dilutions. […] Incubations of cells with test compounds lasted for 72 hours at 37° C., in 5% CO2 atmosphere and 100% humidity. At the end of incubation period, the cells were assayed by using the [^3H]-TdR:
(§6) Cell cultures were incubated with […] (20 μl of stock solution 500 μCi/ml) per well for 6 hours at 37° C. and 5% CO2. The automated cell harvester was used to lyse cells in water and adsorb the DNA onto glass-fiber filters in the format of microtiter plate. The DNA incorporated [^3H]-TdR was retained on the filter while unincorporated material passes through. The filters were dried at room temperature overnight, sealed into a sample bag with 10-12 ml of scintillant. The amount of [^3]H-TdR present in each filter (in CCPM) was determined by scintillation counting in a Betaplate liquid scintillation counter. The effective dose of immunosuppressant (ED) was calculated using the following equotation: ED=(CCPMdrug exposed well/mean CCPMcontrol wells)×100%.

[3] = system: normal human lymphocytes, mitogen activated proliferation; experiment: Mitogen (concanavalin A) activated proliferation of lymphocytes, 3H-thymidine incorporation; assay type: cell-based; conditions: Lymphocyte, 72 hours
Protocol: as §4, §5, §6

[4] = unit nM printed beside the value

T1 sequence (P06493 whole entry, species assumed): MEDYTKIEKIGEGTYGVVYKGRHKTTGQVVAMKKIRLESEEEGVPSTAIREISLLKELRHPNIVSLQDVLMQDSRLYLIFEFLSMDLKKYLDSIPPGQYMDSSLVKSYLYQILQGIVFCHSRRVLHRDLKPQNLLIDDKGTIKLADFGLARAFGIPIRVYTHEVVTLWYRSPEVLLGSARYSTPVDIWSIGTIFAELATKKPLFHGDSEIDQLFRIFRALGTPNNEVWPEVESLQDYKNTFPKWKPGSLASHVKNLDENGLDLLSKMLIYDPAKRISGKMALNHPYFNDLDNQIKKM
T1 sequence (P14635 whole entry partner, species assumed): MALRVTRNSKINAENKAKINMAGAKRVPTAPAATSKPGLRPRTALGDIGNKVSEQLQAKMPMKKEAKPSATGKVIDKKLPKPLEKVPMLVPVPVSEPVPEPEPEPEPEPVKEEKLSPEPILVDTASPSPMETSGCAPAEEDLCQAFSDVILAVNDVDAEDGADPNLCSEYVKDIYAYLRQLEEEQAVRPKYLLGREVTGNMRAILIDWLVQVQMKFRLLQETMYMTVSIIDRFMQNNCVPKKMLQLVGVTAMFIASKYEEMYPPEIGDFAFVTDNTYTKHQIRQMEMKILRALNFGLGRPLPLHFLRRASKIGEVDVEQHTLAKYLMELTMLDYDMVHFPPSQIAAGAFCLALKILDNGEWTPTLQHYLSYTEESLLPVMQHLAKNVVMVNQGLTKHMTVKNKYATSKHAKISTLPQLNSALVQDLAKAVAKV

Row | Compound | pIC50 (CDC2 (p34^cdc2)) | pIC50 (IκB-α) | pIC50 [1] | pIC50 (B16 melanoma) | pIC50 [2] | pIC50 [3] | melting point [°C] | IC50 (CDC2 (p34^cdc2); [4]) [nM] | IC50 (IκB-α; [4]) [nM]
1 | CC(C)n1c(Br)nc2c(NCc3ccccc3)nc(NCCCO)nc21 [2-(3-hydroxypropylamino)-6-benzylamino-8-bromo-9-isopropypurine] | 4.89 | 4.61 | 3.93 | 4.12 | 3.75 | 5.23 | 156 to 161 | – | –
2 | COc1cccc(CNc2nc(Cl)nc3c2nc(Br)n3C(C)C)c1 [Example 3, 6-(3-Methoxybenzylamino)-2-chloro-8-bromo-9-isopropylpurine] | – | – | – | – | – | – | 123 to 125 | – | –
3 | Cn1c(S)nc2c(NCc3ccccc3)nc(NCCO)nc21 | 4.65 | 4.45 | 4.03 | 4.07 | ≤ 3.60 | 4.08 | – | – | –
4 | CC(C)[C@H](CO)Nc1nc(Nc2cccc(Cl)c2)c2nc(F)n(C(C)C)c2n1 | – | – | 5.60 | – | – | – | – | 3.8 | 11
5 | CC(C)n1c(O)nc2c(NCc3ccccc3)nc(NCCCO)nc21 | 5.19 | 4.90 | 5.13 | 5.25 | 3.79 | 5.68 | – | – | –
6 | CC[C@H](CO)Nc1nc(NCc2ccccc2)c2nc(F)n(C(C)C)c2n1 | 6.42 | 5.92 | 5.47 | 5.49 | – | – | – | – | –
7 | CC(C)n1c(NCCO)nc2c(NCc3ccccc3)nc(NCCCO)nc21 | 3.84 | 3.82 | < 3.78 | < 3.78 | 3.74 | 4.53 | – | – | –
8 | Cn1c(NCCO)nc2c(NCc3ccccc3)nc(NCCO)nc21 | 3.90 | 3.81 | < 3.78 | < 3.78 | ≤ 3.60 | 3.77 | – | – | –
9 | Cn1c(O)nc2c(NCc3ccccc3)nc(NCCO)nc21 | 4.87 | 4.79 | 4.34 | 4.25 | 3.70 | 4.31 | – | – | –
10 | CSc1nc2c(NCc3ccccc3)nc(NCCCO)nc2n1C(C)C [2-(3-hydroxypropylamino)-6-benzylamino-8-methylthio-9-isopropylpurine] | – | – | 4.16 | 4.22 | – | – | 64 to 67 | – | –
11 | CC(C)n1c(N)nc2c(NCc3ccccc3)nc(NCCCO)nc21 | 5.07 | 4.89 | 5.07 | 5.17 | 3.84 | 5.80 | – | – | –
12 | CC[C@H](CO)Nc1nc(NCc2ccccc2)c2nc(NCN)n(C(C)C)c2n1 | 3.74 | 3.71 | – | – | 3.75 | 4.59 | – | – | –
